The values below come from patent US20140350014A1, “COMPOUNDS FOR INHIBITING THE INTERACTION OF BCL2 WITH BINDING PARTNERS” (NOVARTIS AG, priority 2011, published 2014).

Molecules are shown by their SMILES.

BCL-2 binding to BAD peptide, sequence (P10415 whole entry): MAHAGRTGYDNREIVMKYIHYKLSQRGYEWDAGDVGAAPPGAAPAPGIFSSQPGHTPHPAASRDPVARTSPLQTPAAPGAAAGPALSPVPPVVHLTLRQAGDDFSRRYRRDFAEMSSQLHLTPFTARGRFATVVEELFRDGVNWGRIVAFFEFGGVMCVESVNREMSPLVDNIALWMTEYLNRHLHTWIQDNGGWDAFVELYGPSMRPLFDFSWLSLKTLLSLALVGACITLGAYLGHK

For the first experiment, the target named is BCL-2 binding to BAD peptide (Homo sapiens, UniProt P10415). Kind of experiment: BCL2 SPR solution inhibition assay, BAD peptide surface (Biacore A100). The settings on record: read-out: BCL2_SPR IC50 BAD. An excerpt:
(§1) 33The present method includes utility of a Surface plasmon resonance (SPR)-based biosensor (Bia34core™′ GE Healthcare, Uppsala, Sweden) to characterize BCL-2 inhibitors. 35
(§2) 36Biacore™ utilizes the phenomenon of surface plasmon resonance (SPR) to detect and measure 37binding interactions. In a typical Biacore experiment, one of the interacting molecules (ligand) is i38mmobilized on a flexible dextran matrix while the interacting partner (analyte) is allowed to fl39ow across that surface. A binding interaction results in an increase in mass on the sensor surface 40and a corresponding direct change in the refractive index of the medium in the vicinity of the 41sensor surface. Changes in refractive index or signal are recorded in resonance units (R.U.) Signal 42changes due to association and dissociation of complexes are monitored in a non-invasive manne43r, continuously and in real-time, the results of which are reported in the form of a sensorgram.44
(§3) The SPR assay is con45figured to examine solution inhibition of BCL-2 binding to peptide derivatized sensor surfa46ces to generate IC50 values as a measure of inhibitor potency.
(§4) Biacore™ A100 (GE Healthcare, Uppsala, Sweden) was used to conduct all experiments reported herein. Sensor surface preparation and all interaction analyses experiments were performed at 25° C. Reagents were purchased from GE Healthcare. Running buffer containing 10 mM Hepes, pH7.4, 150 mM sodium chloride, 1.25 mM Dithiothreitol, 3% Dimethyl sulfoxide and 0.05% polysorbate 20 were utilized throughout all analyses.
(§5) Biotinylated BAK, BAD and NOXA peptides were diluted to 10 nM in running buffer and captured onto a sensor surface pre-derivatized with streptavidin (sensor chip SA) to peptide surface densities in the range 50-100 R.U. Peptide captured surfaces were blocked with 500 μM PEO2-Biotin.
(§6) Interaction analyses were performed by first equilibrating each sample within a 6 point three fold compound dilution series in the range 16 μM to […] with 56 nM BCL-2 for one hour during instrument start-up procedures. Protein compound mixtures were then injected over each peptide surface in parallel for 60 seconds at a flow-rate of 30 μL/min. 56 nM BCL-2 control samples were also prepared and run at regular intervals during the assay. Surface regeneration was performed at the end of each analysis cycle by two 30 second injections of 10 mM Glycine, pH 2.5, 1M Sodium Chloride, 0.05% polysorbate 20. Samples and control compound samples were run in duplicate and controls are also run at regular intervals during the assay to monitor surface and assay performance.
(§7) Data analyses are carried out using Biacore™ A100 evaluation software v1.1 to validate assay quality. Binding level report points were used relative to BCL-2 control samples to calculate % inhibition values for each compound protein mixture. […] The range of data shown in table 1 represents the high and low IC50 values obtained from multiple experiments.
On to `CCCCN(CCCC)C(=O)c1cc(C)n(-c2ccc(-c3ccc(OC)c(OC)c3)cc2C(=O)N2Cc3ccccc3C[C@H]2CO)n1` [Example 52], for which the concentration for half-maximal inhibition (IC50) lay in the range of 567 to 629 nM.

In the case of `CCCCN(CCCC)C(=O)c1cc(C)n(-c2ccc(-c3cccc4cnccc34)cc2C(=O)N2Cc3ccccc3C[C@H]2CO)n1` [Example 53], the IC50 was 811 to 996 nM.

As to `CCCCN(CCCC)C(=O)c1cc(C)n(-c2ccc(-c3cc(Cl)ccc3OC)cc2C(=O)N2Cc3ccccc3C[C@H]2CO)n1` [Example 54], the IC50 was 938 to 952 nM.

As to `CCCCN(CCCC)C(=O)c1cc(C)n(-c2ccc(-c3ccc(OC(C)C)cc3)cc2C(=O)N2Cc3ccccc3C[C@H]2CO)n1` [Example 55], the 50% inhibitory concentration (IC50) is 722 to 764 nM.

Turning to `CCCCN(CCCC)C(=O)c1cc(C)n(-c2ccc(-c3cc(OC)c(OC)c(OC)c3)cc2C(=O)N2Cc3ccccc3C[C@H]2CO)n1` [Example 56], the half-maximal inhibitory concentration (IC50) lay within 284 to 296 nM.

Consider `CCCCN(CCCC)C(=O)c1cc(C)n(-c2ccc(-c3ccc4cc(OC)ccc4c3)cc2C(=O)N2Cc3ccccc3C[C@H]2CO)n1` [Example 57], for which the IC50 lay in the range of 605 to 653 nM.

For `CCCCN(CCCC)C(=O)c1cc(C)n(-c2ccc(-c3ccc(C(=O)NC)c(Cl)c3)cc2C(=O)N2Cc3ccccc3C[C@H]2CO)n1` [Example 58], the concentration for half-maximal inhibition (IC50) lay within 151 to 152 nM.

In the case of `CCCCN(CCCC)C(=O)c1cc(C)n(-c2ccc(-c3cc(F)cc(OC(C)C)c3)cc2C(=O)N2Cc3ccccc3C[C@H]2CO)n1` [Example 59], the IC50 lay in the range of 635 to 652 nM.

As to `CCCCN(CCCC)C(=O)c1cc(C)n(-c2ccc(-c3ccc(S(C)(=O)=O)cc3)cc2C(=O)N2Cc3ccccc3C[C@H]2CO)n1` [Example 60], the IC50 was in the range of 608 to 612 nM.

Consider `CCCCN(CCCC)C(=O)c1cc(C)n(-c2ccc(-c3cc(F)cc(C(=O)NC)c3)cc2C(=O)N2Cc3ccccc3C[C@H]2CO)n1` [Example 61], for which the IC50 fell in the range of 458 to 474 nM.

As to `CCCCN(CCCC)C(=O)c1cc(C)n(-c2ccc(-c3cccc(-c4nnc(C)o4)c3)cc2C(=O)N2Cc3ccccc3C[C@H]2CO)n1` [Example 62], the half-maximal inhibitory concentration (IC50) was 543 to 551 nM.

On to `CCCCN(CCCC)C(=O)c1cc(C)n(-c2ccc(-c3ccc(Cl)cc3)cc2C(=O)N2Cc3ccccc3C[C@H]2CO)n1` [Example 63], for which the half-maximal inhibitory concentration (IC50) was in the range of 2070 to 2140 nM.

With `CCCCN(CCCC)C(=O)c1cc(C)n(-c2ccc(-c3ccc(F)cc3Cl)cc2C(=O)N2Cc3ccccc3C[C@H]2CO)n1` [Example 64], the IC50 was 4460 to 4810 nM.

For the compound `CCCCN(CCCC)C(=O)c1cc(C)n(-c2ccc(-c3c(OC)cccc3OC)cc2C(=O)N2Cc3ccccc3C[C@H]2CO)n1` [Example 65], the IC50 was 10600 to 12300 nM.

Regarding `CCCCN(CCCC)C(=O)c1cc(C)n(-c2ccc(-c3cc(C)cc(F)c3)cc2C(=O)N2Cc3ccccc3C[C@H]2CO)n1` [Example 66], the IC50 lay in the range of 998 to 1060 nM.

On to `CCCCN(CCCC)C(=O)c1cc(C)n(-c2ccc(-c3ccc4ccccc4c3)cc2C(=O)N2Cc3ccccc3C[C@H]2CO)n1` [Example 67], for which the 50% inhibitory concentration (IC50) lay within 823 to 857 nM.

Turning to `CCCCN(CCCC)C(=O)c1cc(C)n(-c2ccc(-c3ccc(N(C)C)cc3)cc2C(=O)N2Cc3ccccc3C[C@H]2CO)n1` [Example 68], the IC50 fell in the range of 1160 to 1210 nM.

On to `CCCCN(CCCC)C(=O)c1cc(C)n(-c2ccc(-c3c(-c4ccccc4)noc3C)cc2C(=O)N2Cc3ccccc3C[C@H]2CO)n1` [Example 69], for which the half-maximal inhibitory concentration (IC50) is 5450 to 5510 nM.

Another experiment deals with BCL-2 binding to BAK peptide (Homo sapiens, UniProt P10415). Kind of experiment: BCL2 SPR solution inhibition assay, BAK peptide surface (Biacore A100). The settings on record: read-out: BCL2_SPR IC50 BAK.
BCL-2 binding to BAK peptide, sequence (P10415 whole entry): as above
Excerpt: as §1, §2, §3, §4, §5, §6, §7
Take `CCCCN(CCCC)C(=O)c1cc(C)n(-c2ccc(-c3ccc(OC)c(OC)c3)cc2C(=O)N2Cc3ccccc3C[C@H]2CO)n1` [Example 52]: the IC50 is 471 to 479 nM.

Regarding `CCCCN(CCCC)C(=O)c1cc(C)n(-c2ccc(-c3cccc4cnccc34)cc2C(=O)N2Cc3ccccc3C[C@H]2CO)n1` [Example 53], the IC50 fell in the range of 607 to 779 nM.

For the compound `CCCCN(CCCC)C(=O)c1cc(C)n(-c2ccc(-c3cc(Cl)ccc3OC)cc2C(=O)N2Cc3ccccc3C[C@H]2CO)n1` [Example 54], the concentration for half-maximal inhibition (IC50) was in the range of 803 to 845 nM.

Turning to `CCCCN(CCCC)C(=O)c1cc(C)n(-c2ccc(-c3ccc(OC(C)C)cc3)cc2C(=O)N2Cc3ccccc3C[C@H]2CO)n1` [Example 55], the half-maximal inhibitory concentration (IC50) lay within 564 to 617 nM.

Consider `CCCCN(CCCC)C(=O)c1cc(C)n(-c2ccc(-c3cc(OC)c(OC)c(OC)c3)cc2C(=O)N2Cc3ccccc3C[C@H]2CO)n1` [Example 56], for which the IC50 was 215 to 238 nM.

Turning to `CCCCN(CCCC)C(=O)c1cc(C)n(-c2ccc(-c3ccc4cc(OC)ccc4c3)cc2C(=O)N2Cc3ccccc3C[C@H]2CO)n1` [Example 57], the IC50 was 556 to 689 nM.

For the compound `CCCCN(CCCC)C(=O)c1cc(C)n(-c2ccc(-c3ccc(C(=O)NC)c(Cl)c3)cc2C(=O)N2Cc3ccccc3C[C@H]2CO)n1` [Example 58], the IC50 fell in the range of 111 to 112 nM.

Turning to `CCCCN(CCCC)C(=O)c1cc(C)n(-c2ccc(-c3cc(F)cc(OC(C)C)c3)cc2C(=O)N2Cc3ccccc3C[C@H]2CO)n1` [Example 59], the IC50 lay in the range of 540 to 583 nM.

For the compound `CCCCN(CCCC)C(=O)c1cc(C)n(-c2ccc(-c3ccc(S(C)(=O)=O)cc3)cc2C(=O)N2Cc3ccccc3C[C@H]2CO)n1` [Example 60], the half-maximal inhibitory concentration (IC50) fell in the range of 432 to 458 nM.

Turning to `CCCCN(CCCC)C(=O)c1cc(C)n(-c2ccc(-c3cc(F)cc(C(=O)NC)c3)cc2C(=O)N2Cc3ccccc3C[C@H]2CO)n1` [Example 61], the IC50 lay within 331 to 344 nM.

As for `CCCCN(CCCC)C(=O)c1cc(C)n(-c2ccc(-c3cccc(-c4nnc(C)o4)c3)cc2C(=O)N2Cc3ccccc3C[C@H]2CO)n1` [Example 62], the IC50 lay in the range of 763 to 799 nM.

For `CCCCN(CCCC)C(=O)c1cc(C)n(-c2ccc(-c3ccc(Cl)cc3)cc2C(=O)N2Cc3ccccc3C[C@H]2CO)n1` [Example 63], the IC50 is 1710 to 1850 nM.

For the compound `CCCCN(CCCC)C(=O)c1cc(C)n(-c2ccc(-c3ccc(F)cc3Cl)cc2C(=O)N2Cc3ccccc3C[C@H]2CO)n1` [Example 64], the IC50 was in the range of 3380 to 4000 nM.

Turning to `CCCCN(CCCC)C(=O)c1cc(C)n(-c2ccc(-c3c(OC)cccc3OC)cc2C(=O)N2Cc3ccccc3C[C@H]2CO)n1` [Example 65], the IC50 lay within 6340 to 6900 nM.

For `CCCCN(CCCC)C(=O)c1cc(C)n(-c2ccc(-c3cc(C)cc(F)c3)cc2C(=O)N2Cc3ccccc3C[C@H]2CO)n1` [Example 66], the IC50 fell in the range of 936 to 976 nM.

Regarding `CCCCN(CCCC)C(=O)c1cc(C)n(-c2ccc(-c3ccc4ccccc4c3)cc2C(=O)N2Cc3ccccc3C[C@H]2CO)n1` [Example 67], the IC50 is 785 to 804 nM.

Regarding `CCCCN(CCCC)C(=O)c1cc(C)n(-c2ccc(-c3ccc(N(C)C)cc3)cc2C(=O)N2Cc3ccccc3C[C@H]2CO)n1` [Example 68], the IC50 is 1050 to 1100 nM.

Consider `CCCCN(CCCC)C(=O)c1cc(C)n(-c2ccc(-c3c(-c4ccccc4)noc3C)cc2C(=O)N2Cc3ccccc3C[C@H]2CO)n1` [Example 69], for which the half-maximal inhibitory concentration (IC50) was 4420 to 4570 nM.
